The nature of data set [1]: Loss of Alexidine due to non-specific binding to glass vial at different pH. It counts as physicochemical. The conditions noted are these: 20 ppm, two weeks. As to the method:
Alexidine sample solutions (20 ppm) were prepared at different pHs and quantitative amount were stored in glass vial for two weeks. At the end of storage, the sample solution was removed and thoroughly rinsed with distilled water. The empty sample vials were then rinsed with 0.1 N HCl solution. The concentration of Alexidine in the acid solution was determined by HPLC assay and the amount recovered from glass wall was calculated in Table 1.

A short description of data set [2]: Anterior ocular and systemic pharmacokinetics after repeated topical ocular administration (TID, 10 doses). It counts as in vivo, male New Zealand Composite rabbits. Conditions: for AUC(0-24) / DNAUC(0-24) / Cmax / Tmax: TID dosing (dose 10), 10 μg/eye; for Cmax / Tmax: topical or ocular, 10 ug. The method, then: This study was to investigate anterior ocular and systemic pharmacokinetics of alexidine following repeated topical ocular administration (3 doses/day; 10 doses total) of a 100 ppm solution to male New Zealand Composite rabbits.
This study was carried out using a non-crossover design and a total of 52 naïve male New Zealand Composite rabbits. Each animal (fed) received a topical ocular dose of alexidine at approximately 7 am, 12 noon and 5 pm on Day 1, Day 2 and Day 3. On the morning of Day 4, each animal received the final (10th) topical ocular dose. For each dose administration, animals received approximately 100 μL of a 100 ppm solution (10 μg dose) as a topical instillation into the conjunctival sac of each eye using a positive-displacement pipette.
On Day 4, rabbits (n=4 per collection time) were euthanized and the eyes enucleated and dissected. Samples of blood (centrifuged to obtain plasma), tear, conjunctiva, cornea, and aqueous humor were obtained from both eyes of each animal. Samples were collected prior to administration of the final dose, and 5, 15, and 30 min and 1, 2, 4, 8, 24, 32, 48, 56, and 72 hr after dosing. Non-compartmental methods were used for pharmacokinetic analysis of concentration versus time data. Due to the destructive sampling regimen employed in this study average composite data were used in the pharmacokinetic analysis.
Abbreviations used in this diagram are as follows. Cmax is defined as the maximum mean concentration attained after topical instillation (±SD). Tmax is the time that Cmax was observed.

Data set [3] is described as follows: Pharmacokinetics after single topical ocular dose 10 μg/eye (BL06029). It counts as in vivo, rabbit. Conditions: single dose 10 μg/eye (BL06029); for Cmax / Tmax: rabbit, topical or ocular, 10 ug.
For data set [4], the system named is acantamoeba cysts and trophazoites. The conditions noted are these: cited from earlier work.
The test system of a further data set is Aspergillus keratitis. Conditions: 0.02%; cited from earlier work.
The next data set relates to Fusarium Keratomycosis. The conditions noted are these: 0.02% solution, rabbit model; cited from earlier work.
For the next data set, the system named is Acanthamoeba keratitis. The conditions noted are these: case report, recurrence in corneal graft; cited from earlier work.
Where [5] appears, read: male, New Zealand Composite, rabbit, Conjunctiva.
Setting [6] is: male, New Zealand Composite, rabbit, Cornea.

Converted amounts (≈) assume the structure as drawn.

What is called Cmax is the maximum level reached in the sampled fluid or tissue. Broadly, the Tmax is the time from dosing to the highest level.

For `CCCCC(CC)CNC(=N)NC(=N)NCCCCCCNC(=N)NC(=N)NCC(CC)CCCC` (stereo not drawn) [Alexidine, 1,1′-hexamethylene-bis[5-(2-ethylhexyl)biguanide]], the “% Adsorbed on Glass Vial” value in data set [1] (pH 3) was 1.0%; in data set [1] (pH 5), 4.0%; in data set [1] (pH 7), 7.5%; in data set [1] (pH 9) it was 12.5%; in data set [1] (pH 11), 23.5%. For the same compound, the “AUC(0-24)” value in data set [2] (Conjunctiva) came out at 11461 µg·min/g; in data set [2] (Cornea), 2727 µg·min/g; in data set [3] (Conjunctiva), 5697 µg·min/g; in data set [3] (Cornea), 557 µg·min/g. The “DNAUC(0-24)” value in data set [2] (Conjunctiva) was 1146 (min · ug/g) ÷ ug; in data set [2] (Cornea), 273 (min · ug/g) ÷ ug; in data set [3] (Conjunctiva) it was 570 (min · ug/g) ÷ ug; in data set [3] (Cornea), 55.7 (min · ug/g) ÷ ug. In addition, the “mean concentrations in conjunctiva” value in data set [2] (at all times through the 72 hr after the final 10-μg dose) is reported as ≥ 5100 ng/g. Besides, in data set [2] (male, New Zealand Composite, rabbit, conjunctiva, topical, repeated administration of a 10-μg dose, value used for AUC:MIC90 ratio, read-out: AUC(0-24)), the AUC(0-t) came to 191 µg·h/mL. Also, the Cmax was 15100 ± 4120 ng/g in data set [2] (setting [5]), 3740 ± 1790 ng/g in data set [2] (setting [6]), 6440 ng/g in data set [3] (Conjunctiva) and 997 ng/g in data set [3] (Cornea). Also, the Tmax in data set [2] (setting [5]) was 5 min; in data set [2] (setting [6]) it was 30 min; in data set [3] (Conjunctiva), 480 min; in data set [3] (Cornea), 15 min. Besides, the tolerability result in data set [2] (repeated administration of a 100 ppm solution, topical ocular) is “well tolerated in all animals”. Further, in data set [3] (Aq. Humor), the “levels in aqueous humor” value is recorded as “No Quantifiable levels (<0.5 ng/mL)”. Further, in data set [3] (Plasma), the levels in plasma result was “No Quantifiable levels (<0.5 ng/mL)”. Also, in data set [4], the minimum inhibitory concentration is 6.3 mg/L (≈ 12.4 µM).

In the case of poly(hexamethylene biguanide) [PHMB], the “effectiveness in experimental Aspergillus keratitis” value in the data set with Aspergillus keratitis was “moderately effective”. In addition, in the data set with Fusarium Keratomycosis, the reducing fungal growth result is on record as “effective at reducing fungal growth”. In addition, in the data set with Acanthamoeba keratitis, the “treatment of recurrences of Acanthamoeba keratitis” value is on record as “successfully treated”.

These data come from patent US20070140897A1, “PH STABLE BIGUANIDE COMPOSITION AND METHOD OF TREATMENT AND PREVENTION OF INFECTIONS” (priority 2005, published 2007).
